The term pIC50 denotes −log10 of the IC50, conventionally taken in molar units. Low readings indicate a large IC50, high ones a small IC50.

The text below walks through data of patent publication US20230174538A1, “Tricyclic heterocycles” (Merck Patent GmbH, priority 2020, published 2023).

pIC50: −log10 of the molar value.

For this test, the system named is YAP-TEAD interaction. The test is described as follows: SK-HEP-1 reporter assay (8xTEAD responsive elements driving NanoLuc luciferase). It counts as cell-based. To be noted: Homo sapiens, SK-HEP1, SK-HEP-1 reporter assay. Put shortly: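 Luminescence after NanoGlo addition gave reporter activity, and IC50 values came from duplicate 10-point curves (top final concentration 30 μM, 0.3% DMSO). The cells were SK-HEP-1 with a stably integrated 8×TEAD-driven NanoLuc gene, exposed to compound for 24 h at 37 °C.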
Background: Reporter assays use an easily measured gene product as a stand-in for the process of interest.
As to `Cn1cc2c3cc(C(=O)N4CC(O)C5(CCOCC5)C4)ccc3n(-c3ccc(C(F)(F)F)cc3)c2n1` (stereo not drawn) [Example B56, 2-(2-methyl-8-[4-(trifluoromethyl)phenyl]-2H,8H-pyrazolo[3,4-b]indole-5-carbonyl}-8-oxa-2-azaspiro[4.5]decan-4-ol], the pIC50 was under 5.00. In turn, `Cc1cnc2n1CCC2NC(=O)c1ccc2c(c1)c1cn(C)nc1n2-c1ccc(C(F)(F)F)cc1` (stereo not drawn) [Example B57, 2-methyl-N-(3-methyl-5H,6H,7H-pyrrolo[1,2-a]imidazol-7-yl}-8-[4-(trifluoromethyl)phenyl]-2H,8H-pyrazolo[3,4-b]indole-5-carboxamide] showed a pIC50 of 5.00 to 7.00. On to `Cn1cc2c3cc(C(=O)NCC4=CCOCC4)ccc3n(-c3ccc(C(F)(F)F)cc3)c2n1` [Example B58, N-[(3,6-dihydro-2H-pyran-4-yl)methyl]-2-methyl-8-[4-(trifluoromethyl)phenyl]-2H,8H-pyrazolo[3,4-b]indole-5-carboxamide], for which the pIC50 is 8.00 to 9.00. The value for `Cc1c[nH]c(C2(NC(=O)c3ccc4c(c3)c3cn(C)nc3n4-c3ccc(C(F)(F)F)cc3)CCC2)n1` [Example B60, 2-methyl-N-[1-(4-methyl-1H-imidazol-2-yl)cyclobutyl]-8-[4-(trifluoromethyl)phenyl]-2H,8H-pyrazolo[3,4-b]indole-5-carboxamide] was 5.00 to 7.00; that for `CC(NC(=O)c1ccc2c(c1)c1cn(C)nc1n2-c1ccc(C(F)(F)F)cc1)C(C)N1CCOCC1` (stereo not drawn) [Example B61, 2-methyl-N-[3-(morpholin-4-yl)butan-2-yl]-8-[4-(trifluoromethyl)phenyl]-2H,8H-pyrazolo[3,4-b]indole-5-carboxamide] was 5.00 to 7.00. As for `Cn1cc2c3cc(C(=O)N4CCCC(OCC5CC5)C4)ccc3n(-c3ccc(C(F)(F)F)cc3)c2n1` (stereo not drawn) [Example B62, 3-(cyclopropylmethoxy)-1-{2-methyl-8-[4-(trifluoromethyl)phenyl]-2H,8H-pyrazolo[3,4-b]indole-5-carbonyl}piperidine], the figure is under 5.00; as for `Cn1cc2c3cc(C(=O)NCc4conc4C4CCC4)ccc3n(-c3ccc(C(F)(F)F)cc3)c2n1` [Example B63, N-[(3-cyclobutyl-1,2-oxazol-4-yl)methyl]-2-methyl-8-[4-(trifluoromethyl)phenyl]-2H,8H-pyrazolo[3,4-b]indole-5-carboxamide], 5.00 to 7.00.

As for `Cc1nnc2n1CCCC2NC(=O)c1ccc2c(c1)c1cn(C)nc1n2-c1ccc(C(F)(F)F)cc1` (stereo not drawn) [Example B64, 2-methyl-N-(3-methyl-5H,6H,7H,8H-[1,2,4]triazolo[4,3-a]pyridin-8-yl}-8-[4-(trifluoromethyl)phenyl]-2H,8H-pyrazolo[3,4-b]indole-5-carboxamide], the pIC50 is under 5.00. As for `CN1CCN(C(=O)c2ccc3c(c2)c2cn(C)nc2n3-c2ccc(C(F)(F)F)cc2)CC1CO` (stereo not drawn) [Example B65, (1-methyl-4-{2-methyl-8-[4-(trifluoromethyl)phenyl]-2H,8H-pyrazolo[3,4-b]indole-5-carbonyl}piperazin-2-yl)methanol], the figure is under 5.00; as for `Cc1cnn(CC(C)NC(=O)c2ccc3c(c2)c2cn(C)nc2n3-c2ccc(C(F)(F)F)cc2)c1` (stereo not drawn) [Example B66, 2-methyl-N-[1-(4-methyl-1H-pyrazol-1-yl)propan-2-yl]-8-[4-(trifluoromethyl)phenyl]-2H,8H-pyrazolo[3,4-b]indole-5-carboxamide], 5.00 to 7.00. As to `Cn1cc2c3cc(C(=O)NCCc4ocnc4CO)ccc3n(-c3ccc(C(F)(F)F)cc3)c2n1` [Example B67, N-{2-[4-(hydroxymethyl)-1,3-oxazol-5-yl]ethyl}-2-methyl-8-[4-(trifluoromethyl)phenyl]-2H,8H-pyrazolo[3,4-b]indole-5-carboxamide], the pIC50 is 7.00 to 8.00. As for `Cc1nccc(C2(NC(=O)c3ccc4c(c3)c3cn(C)nc3n4-c3ccc(C(F)(F)F)cc3)CC2)n1` [Example B69, 2-methyl-N-[1-(2-methylpyrimidin-4-yl)cyclopropyl]-8-[4-(trifluoromethyl)phenyl]-2H,8H-pyrazolo[3,4-b]indole-5-carboxamide], the figure is under 5.00.
